Laboratory results as given in PubChem BioAssay (NCI).
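A five-concentration, 48-hour dose response in 96-well plates underlies each endpoint, interpolated linearly between surrounding concentrations. At the GI50, growth is halved. TGI denotes the concentration required for complete inhibition of growth.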

How the values were obtained:
Assay in all cases: NCI anticancer screen, dose series, 48 h
[1] = system: SNB-19 CNS
[2] = system: NCI-H23 lung
[3] = system: HL-60(TB) leukemia
[4] = system: SK-MEL-28 melanoma
[5] = system: MCF7 breast
[6] = system: NCI-H226 lung
[7] = system: HCT-15 colon
[8] = system: DU-145 prostate
[9] = system: KM12 colon
[10] = system: SF-295 CNS
[11] = system: A498 renal
[12] = system: SF-539 CNS
[13] = system: HCC-2998 colon
[14] = system: BT-549 breast
[15] = system: RXF 393 renal
[16] = system: T-47D breast
[17] = system: HT29 colon
[18] = system: NCI-H460 lung
[19] = system: SK-MEL-2 melanoma
[20] = system: SNB-75 CNS
[21] = system: MDA-MB-435
[22] = system: SR leukemia
[23] = system: IGROV1 ovarian
[24] = system: ACHN renal
[25] = system: HCT-116 colon
[26] = system: M14 melanoma
[27] = system: SK-MEL-5 melanoma
[28] = system: SW-620 colon
[29] = system: MALME-3M melanoma
[30] = system: HOP-92 NSCLC
[31] = system: TK-10 renal
[32] = system: COLO 205 colon
[33] = system: CCRF-CEM leukemia
[34] = system: 786-0 renal
[35] = system: NCI-H522 lung
[36] = system: CAKI-1 renal
[37] = system: MOLT-4 leukemia
[38] = system: HS 578T breast
[39] = system: OVCAR-3 ovarian
[40] = system: MDA-MB-231 breast
[41] = system: RPMI-8226 leukemia
[42] = system: UO-31 renal
[43] = system: OVCAR-4 ovarian
[44] = system: OVCAR-5 ovarian
[45] = system: PC-3 prostate
[46] = system: HOP-62 NSCLC
[47] = system: K-562 leukemia
[48] = system: NCI/ADR-RES ovarian
[49] = system: SN12C renal
[50] = system: SF-268 CNS
[51] = system: UACC-62 melanoma
[52] = system: EKVX NSCLC
[53] = system: UACC-257 melanoma
[54] = system: LOX IMVI melanoma
[55] = system: U251 CNS
[56] = system: OVCAR-8 ovarian
[57] = system: A549 NSCLC
[58] = system: SK-OV-3 ovarian

In the case of NC(=O)c1cnc(N[C@@H]2CCCC[C@@H]2N)nc1Nc1cccc(-n2nccn2)c1, the GI50 [1] is reported as 10.7 µM, the TGI [1] is reported as 25 µM and the GI50 [2] is reported as 3.24 µM. For the same molecule, the TGI [2] was 17.2 µM, the GI50 [3] was 1.5 µM and the TGI [3] was 3.82 µM. The GI50 [4] was 3.26 µM, the TGI [4] was 11.3 µM and the GI50 [5] was 2.33 µM. The TGI [5] was 10.2 µM, the GI50 [6] was 4.73 µM and the TGI [6] was 17.8 µM. It also gave a GI50 [7] of 3.81 µM, a TGI [7] of 14.9 µM and a GI50 [8] of 3.84 µM. It also gave a TGI [8] of 15.8 µM, a GI50 [9] of 2.15 µM and a TGI [9] of 10.2 µM. It also gave a GI50 [10] of 13.3 µM, a TGI [10] of 26.7 µM and a GI50 [11] of 4.62 µM. It also gave a TGI [11] of 17.4 µM, a GI50 [12] of 5.44 µM and a TGI [12] of 17.2 µM. The GI50 [13] was 1.99 µM, the TGI [13] was 4.82 µM and the GI50 [14] was 6.37 µM. It also gave a TGI [14] of 19 µM, a GI50 [15] of 2.34 µM and a TGI [15] of 8.05 µM. It also gave a GI50 [16] of 6.44 µM, a TGI [16] of 22.1 µM and a GI50 [17] of 2.82 µM. It also gave a TGI [17] of 11.5 µM, a GI50 [18] of 3.42 µM and a TGI [18] of 12.6 µM. The GI50 [19] was 3.29 µM, the TGI [19] was 15.2 µM and the GI50 [20] was 2.21 µM. For the same molecule, the TGI [20] was 12.4 µM, the GI50 [21] was 3.03 µM and the TGI [21] was 10.9 µM. The GI50 [22] was 2.23 µM, the TGI [22] was 6.5 µM and the GI50 [23] was 4.01 µM. The TGI [23] was 14.3 µM, the GI50 [24] was 2.69 µM and the TGI [24] was 11.1 µM. It also gave a GI50 [25] of 2.3 µM, a TGI [25] of 7.7 µM and a GI50 [26] of 2.11 µM. It also gave a TGI [26] of 6.14 µM, a GI50 [27] of 5.37 µM and a TGI [27] of 18 µM. For the same molecule, the GI50 [28] was 3.81 µM, the TGI [28] was 13.4 µM and the GI50 [29] was 3.06 µM. For the same molecule, the TGI [29] was 10.4 µM, the GI50 [30] was 2.7 µM and the TGI [30] was 8.72 µM. It also gave a GI50 [31] of 5.55 µM, a TGI [31] of 17.8 µM and a GI50 [32] of 1.81 µM. For the same molecule, the TGI [32] was 4.56 µM, the GI50 [33] was 5 µM and the TGI [33] was 19.8 µM. For the same molecule, the GI50 [34] was 5.57 µM, the TGI [34] was 17.6 µM and the GI50 [35] was 4.14 µM. It also gave a TGI [35] of 17.5 µM, a GI50 [36] of 2.47 µM and a TGI [36] of 8.09 µM. For the same molecule, the GI50 [37] was 2.94 µM, the TGI [37] was 12.7 µM and the GI50 [38] was 3.37 µM. It also gave a TGI [38] of 20.7 µM, a GI50 [39] of 5.94 µM and a TGI [39] of 18.4 µM. It also gave a GI50 [40] of 4.13 µM, a TGI [40] of 17.3 µM and a GI50 [41] of 6.7 µM. It also gave a TGI [41] of 23 µM, a GI50 [42] of 3.32 µM and a TGI [42] of 14.7 µM. For the same molecule, the GI50 [43] was 7.01 µM, the TGI [43] was 19.6 µM and the GI50 [44] was 3.65 µM. It also gave a TGI [44] of 15.3 µM, a GI50 [45] of 5.16 µM and a TGI [45] of 20.7 µM. The GI50 [46] was 4.69 µM, the TGI [46] was 17.7 µM and the GI50 [47] was 3.94 µM. For the same molecule, the TGI [47] was 14.7 µM, the GI50 [48] was 14.6 µM and the TGI [48] was 30.6 µM. For the same molecule, the GI50 [49] was 4.13 µM, the TGI [49] was 17.6 µM and the GI50 [50] was 5.82 µM. It also gave a TGI [50] of 19.7 µM, a GI50 [51] of 5.48 µM and a TGI [51] of 20.3 µM. For the same molecule, the GI50 [52] was 6.04 µM, the TGI [52] was 18.9 µM and the GI50 [53] was 2.02 µM. For the same molecule, the TGI [53] was 4.49 µM, the GI50 [54] was 2.11 µM and the TGI [54] was 6.12 µM. The GI50 [55] was 5.87 µM, the TGI [55] was 18.2 µM and the GI50 [56] was 6.6 µM. The TGI [56] was 20 µM, the GI50 [57] was 3.58 µM and the TGI [57] was 14.3 µM. The GI50 [58] was 4.14 µM and the TGI [58] was 15.1 µM.

Molecule C=C(C)C(=O)O[C@H]1CC2(CO)O[C@@H]2CC/C(COC(C)=O)=C/C2OC(=O)C(=C)[C@@H]21 (some centres undefined) has a TGI [1] greater than 100 µM, a TGI [2] greater than 100 µM and a TGI [3] of 29.6 µM. For the same molecule, the TGI [4] was greater than 64.6 µM, the TGI [5] was 57.7 µM and the TGI [6] was greater than 100 µM. The TGI [7] was greater than 96.7 µM, the TGI [8] was greater than 100 µM and the TGI [9] was greater than 100 µM. The TGI [10] was greater than 100 µM, the TGI [11] was greater than 100 µM and the TGI [12] was greater than 100 µM. The TGI [13] was greater than 91.6 µM, the TGI [14] was 52.1 µM and the TGI [15] was 26.4 µM. For the same molecule, the TGI [16] was greater than 79.2 µM, the TGI [17] was greater than 100 µM and the TGI [18] was greater than 100 µM. For the same molecule, the TGI [19] was greater than 100 µM, the TGI [20] was greater than 100 µM and the TGI [21] was greater than 61.3 µM. The TGI [22] was 43.3 µM, the TGI [23] was greater than 100 µM and the TGI [24] was greater than 63.6 µM. It also gave a TGI [25] of 39.4 µM, a TGI [26] of 49.1 µM and a TGI [27] greater than 100 µM. The TGI [28] was 54.7 µM, the TGI [29] was 62.2 µM and the TGI [30] was 51.9 µM. It also gave a TGI [31] greater than 56.6 µM, a TGI [32] of 48.4 µM and a TGI [33] of 39.3 µM. It also gave a TGI [34] greater than 31.6 µM, a TGI [35] of 31.6 µM and a TGI [36] greater than 58.8 µM. It also gave a TGI [37] of 29.8 µM, a TGI [38] greater than 100 µM and a TGI [39] of 79.6 µM. For the same molecule, the TGI [40] was greater than 100 µM, the TGI [41] was 31.3 µM and the TGI [42] was 59.4 µM. The TGI [43] was greater than 100 µM, the TGI [44] was greater than 100 µM and the TGI [45] was greater than 100 µM. The TGI [46] was greater than 100 µM, the TGI [47] was 74 µM and the TGI [48] was greater than 100 µM. It also gave a TGI [49] greater than 100 µM, a TGI [50] greater than 100 µM and a TGI [51] greater than 100 µM. For the same molecule, the TGI [52] was greater than 100 µM, the TGI [53] was 43.1 µM and the TGI [54] was greater than 60 µM. For the same molecule, the TGI [55] was greater than 100 µM, the TGI [56] was 49.8 µM and the TGI [57] was greater than 100 µM. The TGI [58] was greater than 100 µM.
